# Assay results published in paper PMC11784839, “Monoaminergic neurotransmitters are bimodal effectors of tau aggregation” (Science Advances, 2025).
# Target: tau (Homo sapiens, UniProt P10636)
# Assay: MCE Phenols Library screening, tau biosensor cell seeding assay (AvZ)
# Assay type: cell-based
# Conditions: for Z repl 1 / Z Repl 2: Z score; for Z repl 1 / raw data 1: replicate 1; for Z Repl 2 / raw data 2: replicate 2; for AvZ (average z score of seeding, SDs from the mean level of seeding): 10 μM phenol in cell cultures, AD brain homogenate preincubated 16 hours, two biological replicates, positive = catalyzes seeding, negative = inhibits
# [1] = average Z score of the two replicates, MCE Phenols Library screen
# [2] = average puncta of the two replicates
# [3] = average Z score of the two replicates, tau seeding
# [4] = average Z score of two replicates, Phenols Library screen
# Chain of tau (P10636 623-695 limits assumed): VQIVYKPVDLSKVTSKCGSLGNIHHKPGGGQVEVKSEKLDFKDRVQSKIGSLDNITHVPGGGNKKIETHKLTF
Z repl 1,Z Repl 2,av Z [1],raw data 1 (puncta),raw data 2 (puncta),av Z [3],av puncta (average of raw data 1 and 2),"AvZ (average z score of seeding, SDs from the mean level of seeding)",av Z [4],Compound,av puncta [2],raw data 1 (raw puncta),raw data 2 (raw puncta)
0.14,-0.394,–,28033.5,8554.47,–,18294,–,-0.127,COc1ccc(-c2cc(=O)c3c(O)c(OC)c(OC)cc3o2)cc1OC [5-Desmethylsinensetin],–,–,–
–,–,–,392.747,253.87,–,323.309,–,–,"Theaflavin 3,3'-digallate",–,–,–
0.021,0.172,–,26603.6,14600.1,–,20601.9,0.096,–,COc1cc(/C=C/C=O)cc(OC)c1O [Sinapaldehyde],–,–,–
-0.373,0.274,–,21876.3,15696.4,–,18786.4,–,-0.049,COC(=O)[C@]1(O)C[C@@H](O)[C@@H](O)[C@H](OC(=O)/C=C/c2ccc(O)c(O)c2)C1 [3-O-Caffeoylquinic acid methyl ester],–,–,–
0.462,0.318,–,31895.3,16164,0.39,24029.7,–,–,O=C(O)CC(O)(CC(=O)OCc1ccc(O[C@@H]2O[C@H](CO)[C@@H](O)[C@H](O)[C@H]2O)cc1)C(=O)OCc1ccc(O[C@@H]2O[C@H](CO)[C@@H](O)[C@H](O)[C@H]2O)cc1 (some centres unmarked) [Parishin B],–,–,–
0.855,0.348,–,36614.6,16482.8,0.602,26548.7,–,–,COc1cc(-c2coc3cc4c(c(O)c3c2=O)OCO4)cc(O)c1OC [Dichotomitin],–,–,–
-0.724,0.15,–,–,–,–,–,-0.287,–,O=C(O)C=Cc1ccc(O)cc1 [p-Coumaric acid],16011.2,17659.3,14363.1
0.138,0.314,–,28009.6,16121.4,0.226,22065.5,–,–,O=C(/C=C/c1ccccc1)c1ccc(O)cc1 [4'-Hydroxychalcone],–,–,–
-0.342,-0.568,-0.455,22246.4,6703.04,–,–,–,–,C[C@@H]1O[C@@H](OC[C@H]2O[C@@H](Oc3c(-c4ccc(OCCO)c(OCCO)c4)oc4cc(OCCO)cc(O)c4c3=O)[C@H](O)[C@@H](O)[C@@H]2O)[C@H](O)[C@H](O)[C@H]1O [Troxerutin],14474.7,–,–
-1.263,-0.72,-0.992,11188.8,5072.6,–,8130.71,–,–,NCCCN(CCCCNCCCNC(=O)CCc1ccc(O)c(O)c1)C(=O)CCc1ccc(O)c(O)c1 [Kukoamine B],–,–,–
-0.106,0.876,–,25077.3,22125.4,0.385,23601.4,–,–,COc1ccc(-c2cc(=O)c3c(O)c(OC)c(O)cc3o2)cc1 [Pectolinarigenin],–,–,–
-0.615,-1.07,-0.843,18961.3,1335.66,–,10148.5,–,–,O=C(O[C@@H]1Cc2c(O)cc(O)cc2O[C@H]1c1ccc(O)c(O)c1)c1cc(O)c(O)c(O)c1 [(-)-Catechin gallate],–,–,–
0.518,-0.371,–,32570.5,8807.12,–,20688.8,–,0.074,O=c1cc(-c2ccc(O)cc2)oc2cc(O[C@@H]3O[C@H](CO)[C@@H](O)[C@H](O)[C@H]3O)cc(O)c12 [Apigenin 7-glucoside],–,–,–
0.959,0.951,–,37867.4,22918.7,–,30393,0.955,–,"NCC(c1ccc(O)cc1)C1(O)CCCCC1 (centres unmarked) [N,N,O-Tridesmethylvenlafaxine]",–,–,–

# The remaining lines, values behind:
Compound,Z repl 1,Z Repl 2,av Z [1],raw data 1 (puncta),raw data 2 (puncta),av Z [3],av puncta (average of raw data 1 and 2),"AvZ (average z score of seeding, SDs from the mean level of seeding)",av Z [4],av puncta [2],raw data 1 (raw puncta),raw data 2 (raw puncta)
COc1ccc2c(c1OC)O[C@H]1c3ccc(O)cc3OC[C@@H]21 [Methylnissolin],-0.257,-1.004,-0.63,23269.5,2047.37,–,–,–,–,12658.4,–,–
C=C(C)[C@H](CC=C(C)C)Cc1c(O)cc(OC)c2c1O[C@H](c1ccc(O)cc1OC)CC2=O [(2S)-2'-Methoxykurarinone],0.362,0.799,–,30700.9,21298.7,0.581,25999.8,–,–,–,–,–
CC(=O)c1ccc(O)c(C)c1 [4'-Hydroxy-3'-methylacetophenone],0.035,-0.259,–,26771.9,10003.1,–,18387.5,-0.112,–,–,–,–
O=C(/C=C/c1ccc(O)cc1)c1ccccc1 [4-Hydroxychalcone],-0.784,-0.093,-0.439,–,–,–,–,–,–,14353.6,16932.9,11774.3
OC[C@H]1O[C@@H](Oc2cc3c(O)cc(O)cc3[o+]c2-c2ccc(O)c(O)c2)[C@H](O)[C@@H](O)[C@H]1O.[Cl-] [Cyanidin-3-O-galactoside (chloride)],-1.814,-0.88,-1.347,4573.89,3370.84,–,3972.36,–,–,–,–,–
"O=c1ccoc2cc(O)cc(O)c12 [5,7-Dihydroxychromone]",-1.184,-0.309,-0.746,12131.6,9469.43,–,–,–,–,10800.5,–,–
C[C@@H]1O[C@@H](O[C@H]2C(=O)c3c(O)cc(O)cc3O[C@H]2c2ccc(O)c(O)c2)[C@H](O)[C@H](O)[C@H]1O [Neoisoastilbin],0.661,0.303,–,34290.2,16006,0.482,25148.1,–,–,–,–,–
O=C1N[C@@H]2C(=C[C@H](O)[C@@H](O)[C@H]2O)c2cc3c(c(O)c21)OCO3 [Narciclasine],-2.127,-0.234,-1.181,817.989,10263,–,5540.49,–,–,–,–,–
CC1=CC(=O)c2c(O)cccc2C1=O [Plumbagin],-2.104,-0.904,-1.504,1092.19,3106.45,–,2099.32,–,–,–,–,–
COc1ccc(C=O)cc1 [4-Methoxybenzaldehyde],-0.17,0.786,–,24311,21164.6,–,22737.8,0.308,–,–,–,–
C[C@H]1O[C@@H](O[C@H]2[C@H](Oc3c(-c4ccc(O)cc4)oc4cc(O)cc(O)c4c3=O)O[C@@H](CO)[C@H](O)[C@H]2O)[C@H](O)[C@@H](O)[C@@H]1O [Kaempferol-3-O-glucorhamnoside],-0.601,-1.001,-0.801,19130.8,2076.39,–,10603.6,–,–,–,–,–
C=CCc1ccc(O)c(OC)c1 [Eugenol],-0.386,-0.861,–,21709.5,3574.2,–,–,-0.624,–,12641.9,–,–
Oc1ccc(OC2CCCCO2)cc1 (centres unmarked) [Deoxyarbutin],0.557,-0.129,–,33032.9,11386.3,0.214,22209.6,–,–,–,–,–
CC(=O)Oc1ccc(/C=C/c2cc(OC(C)=O)cc(OC(C)=O)c2)cc1 [Triacetylresveratrol],-0.969,-0.064,-0.517,14710.4,12082.6,–,–,–,–,13396.5,–,–
COc1cc(O)c2c(=O)cc(-c3ccc(O)c(O)c3)oc2c1 [Hydroxygenkwanin],-0.407,-0.493,-0.45,–,–,–,–,–,–,14482.9,21459.9,7505.79
O=C(O[C@@H]1Cc2c(O)cc(O)cc2O[C@@H]1c1cc(O)c(O)c(O)c1)c1cc(O)c(O)c(O)c1 [(-)-Epigallocatechin Gallate],-2.044,–,-1.608,1812.01,238.519,–,1025.27,–,–,–,–,–
OCCc1ccc(O)c(O)c1 [Hydroxytyrosol],-0.11,-0.571,–,–,–,–,–,-0.34,–,15851.9,25031.1,6672.58
O=C1C[C@@H](c2cc(O)c(O)c(O[C@@H]3O[C@H](CO)[C@@H](O)[C@H](O)[C@H]3O)c2)Oc2cc(O)cc(O)c21 [Plantagoside],0.333,-0.026,–,30340.8,12484.2,0.153,21412.5,–,–,–,–,–
COc1cc(CCO)ccc1O [Homovanillyl alcohol],-0.272,0.136,–,23079.4,14215.2,–,18647.3,-0.068,–,–,–,–
